# Where two headings read alike, the source gives them in different places.
# Assays:
# [1] = target: ACE-2: SARS-CoV-2 Spike (RBD) (Homo sapiens, UniProt Q9BYF1); assay: ACE-2: Spike RBD (SARS-CoV-2) inhibitor screening colorimetric assay; assay type: binding, human; SARS-CoV-2; details: in vitro colorimetric kit; mean ± SD; read-out: IC50, ACE2 spike RBD (SARS-CoV-2) inhibitory effect
# [2] = tested on: Human lung microvascular endothelial cells (HLMEC); assay: MTT cell viability assay in HLMEC; assay type: cell-based; details: 48 h, read-out: IC50, viability of HLMEC
# Method: Human lung microvascular endothelial cells (HLMEC) were acquired from Lonza (Hayward, CA, USA). The cells were seeded in an endothelial cell growth medium (EGM-2 MV) (Lonza, Hayward, CA, USA) at 37°C and 5% CO2. Then, at 5 to 7 passages, the cells were plated in 100 μL/well EGM-2 MV medium in collagen-covered 96-well plates. The cells were grown for 3–5 days to reach the confluent layer. Cell viability was valued by the MTT Cell Growth Assay Kit (Sigma-Aldrich, Steinheim, Germany) using untreated cells as control.
# (§1) An experimental model of HLMEC was applied to study the effects of the endophytic compounds 1–4 on ACE-2 protein expression. Preceding this analysis, the cytotoxic effect of compounds 1–4 was determined on HLMEC using an MTT assay. HLMEC were treated with different dilutions of the test samples (0.39–100 μM) for 48 h. Compounds 1–4 being nontoxic (IC50>100 μM, Table 6).
# [3] = tested on: ACE-2 protein expression in HLMEC; assay: Western blot of ACE-2 protein expression in HLMEC; assay type: cell-based, human; details: 25 μM, 48 h, western blot vs untreated cells
# Method: HLMEC cells were seeded, cultured, and incubated with compounds 1–4 for 48h. RIPA buffer (Cell Signaling, Danvers, MA) was employed to obtain the entire-cell protein lysates. Bradford method was used to determine the concentration of protein. Western blot assay was done as previously stated using untreated cells as control. Anti-ACE-2 antibody [EPR24705-45] ab272500 (Abcam, Cambridge, UK) was used.
# as §1
# TNF-α: TNFR2 = target: T1, TNF-α: TNFR2 (Homo sapiens, UniProt P01375); assay: TNFR2: TNF-α [Biotinylated] inhibitor screening assay; assay type: binding; details: in vitro kit, mean ± SD
# T1 construct: purchased BPS bioscience
# Description: In vitro TNF-α [Biotinylated] inhibition assay. TNFR2: TNF-α [Biotinylated] inhibitor screening assay kit (BPS bioscience, Cornerstone Court W, Ste B San Diego, CA 92121) was used to screen for the in vitro inhibition of TNF-α binding to tumor necrosis factor receptor 2 (TNFR2) following the manufacturer’s protocol.
# [4] = tested on: TNF-α mRNA in LPS-stimulated RAW 264.7 macrophages; assay: TNF-α gene expression (qRT-PCR) in LPS-induced RAW 264.7 cells; assay type: cell-based; details: LPS (1 μg/mL)-stimulated RAW 264.7, sub IC50 concentration, relative to LPS control, referenced to Actb
# Method: (§2) Evaluation of pro-inflammatory cytokines (TNF- α and IL-6) using LPS-induced RAW 264.7 cells. RAW 264.7 macrophage cells were procured from the American Type Culture Collection (Manassas, VA, USA) and grown as previously described. In vitro Toxicology Assay Kit, MTT Based (Sigma-Aldrich, Saint Louis, Missouri, USA) was employed to establish cell viability at concentrations (1–250 μM). Treatment of RAW 264.7 cells and determination of the inhibitory effect of the active compounds at sub IC50 values on TNF- α and IL-6 gene expression in RAW264.7 cells were performed as mentioned before using LPs treated cells as control.
# [5] = tested on: IL-6 mRNA in LPS-stimulated RAW 264.7 macrophages; assay: IL-6 gene expression (qRT-PCR) in LPS-induced RAW 264.7 cells; assay type: cell-based; details: LPS (1 μg/mL)-stimulated RAW 264.7, sub IC50 concentration, relative to LPS control, referenced to Actb
# Method: as §2
# [6] = Solubility observation of the isolated compound; assay type: physicochemical; details: observation on the isolated oil
# Description: In addition, there were complex multiplet overlapping signals for several hydrogen protons characteristic for different methylene groups laying in the same chemical environment (H- 5’/5’’, H-6’/6’’, H-11’/11’’ and 12’/12’’). […] In addition to two carbonyl carbons, one of which (C-1’/1’’ δC 167.7) is upfield due to its attachment to the aromatic ring while the other is downfield (C-9’/9’’, δC 174.0). The downfield shift of the two-methylene groups 3’/3’’ (δC, 68.2) and 7’/7’’ (δC 66.7) confirm their attachment to O-C = O. Moreover, the structure contained only one methine group at δC 38.7 (CH- 4’/4’’) and two methyl groups CH3-13’/13’’ and 14’/14’’ at δC 10.9 and 14.0, respectively. Furthermore, there were another five CH2 groups at δC 30.4, 23.7, 34.4, 25.0, and 29.1 for C-5’, 6’, 10’,11’, and 12’, respectively. H-H-COSY (Fig 1) established the correlation between the aromatic ring’s protons and that between the side chains’ protons. Additionally, HMBC data (Fig 1) confirmed the substitution of the aromatic ring through the correlation from H-2/5 ([…]) to C-3/4 (δC 130.9) and that between H-3/4 (δC 7.54) and C-2/5 (δC 128.8). The connectivity of the side chain to the aromatic ring at C-1 and C-6 was established through the correlation from H-2/5 (δH 7.72) to C-1`/1” (δC 167.7). […]
# [7] = read-out: IC50, TNF-α: TNFR2 inhibitory effect
# ACE-2: SARS-CoV-2 Spike (RBD), sequence (Q9BYF1 18-740): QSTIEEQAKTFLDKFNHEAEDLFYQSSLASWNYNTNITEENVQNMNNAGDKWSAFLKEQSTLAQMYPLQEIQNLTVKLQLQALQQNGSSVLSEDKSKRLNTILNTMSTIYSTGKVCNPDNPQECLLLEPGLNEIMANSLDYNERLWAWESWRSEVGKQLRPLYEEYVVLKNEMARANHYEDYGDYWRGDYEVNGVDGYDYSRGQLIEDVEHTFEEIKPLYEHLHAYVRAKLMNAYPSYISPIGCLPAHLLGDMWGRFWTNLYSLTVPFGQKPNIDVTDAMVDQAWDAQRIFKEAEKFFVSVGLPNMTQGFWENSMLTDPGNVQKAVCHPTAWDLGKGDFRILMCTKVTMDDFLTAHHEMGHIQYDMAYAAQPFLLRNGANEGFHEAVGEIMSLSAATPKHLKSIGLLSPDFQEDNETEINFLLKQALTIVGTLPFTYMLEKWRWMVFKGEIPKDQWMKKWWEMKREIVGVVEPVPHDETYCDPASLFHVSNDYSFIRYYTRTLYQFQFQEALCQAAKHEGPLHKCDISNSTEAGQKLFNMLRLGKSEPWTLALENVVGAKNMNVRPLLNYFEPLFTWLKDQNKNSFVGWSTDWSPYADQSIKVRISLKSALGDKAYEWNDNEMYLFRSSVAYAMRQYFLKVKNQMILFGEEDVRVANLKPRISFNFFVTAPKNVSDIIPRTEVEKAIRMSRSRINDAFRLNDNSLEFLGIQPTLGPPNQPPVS
# T1 sequence (P01375 77-233 limits assumed): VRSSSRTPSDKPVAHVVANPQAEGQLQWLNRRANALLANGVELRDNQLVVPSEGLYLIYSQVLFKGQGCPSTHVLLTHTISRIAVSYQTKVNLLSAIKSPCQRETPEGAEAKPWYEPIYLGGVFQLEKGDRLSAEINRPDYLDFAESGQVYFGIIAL
SMILES,IC50 [1] [µM],IC50 [2] [µM],ACE2% inhibition (ACE2 protein expression) [3] [%],IC50 (TNF-α: TNFR2; [7]) [µM],TNF-α mRNA expression fold change [4],IL-6 mRNA expression fold change [5],solubility in water [6],"IC50 (TNF-α: TNFR2; IC50, TNF-α: TNFR2 inhibitory effect) [µM]"
"CC1CCC2C(C1)c1ccccc1C1CCCCC(C)N12 (centres unmarked) [Compound 1, altenuline]",15.5 ± 0.45,> 100,49.65 ± 3.06,8.7 ± 0.34,–,–,–,–
"CCCCC(=O)OCCCC(C)COC(=O)c1ccccc1C(=O)OCC(C)CCCOC(=O)CCCC (centres unmarked) [Compound 2, phthalic acid bis (7’/7’’ pentyloxy) isohexyl ester]",10.4 ± 0.25,> 100,70.51± 4.80,5.4 ± 0.33,0.45 ± 0.07,0.30 ± 0.02,insoluble in water,–
"COc1cc(O)c2c(=O)oc3c(c2c1)C(C)CC3=O (centres unmarked) [Compound 3, 1-deoxyrubralactone]",12.5 ± 0.46,> 100,29.91 ± 4.26,–,–,–,–,–
"COc1cc(O)c2c(=O)oc3cc(O)cc(C)c3c2c1 [Compound 4, alternariol-5-O-methyl ether]",11.7 ± 0.34,> 100,50.85 ± 4.34,–,0.28 ± 0.02,0.14 ± 0.01,–,4.97 ± 0.28
